Source: PubChem BioAssay AID2060501 (Molecular Pharmacology Branch, DTP, NCI, 2025)

Test system: 282377-053-R-J1-PDC complex spheroids, viability
Test: Anticancer human tumor 282377-053-R-J1-PDC patient-derived colon adenocarcinoma cell line growth inhibition [GQUAD]
Details: for IC50: curve of first compound; for viability, T/C: stronger effect = lower value
How it was run: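 Tumor cells were grown as complex spheroids with HUVEC endothelial cells and mesenchymal stem cells as stroma. G-quadruplex stabilizers were combined with targeted agents over half-log dilutions from near the clinical Cmax, or from 10 microM.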

[1] = second compound 0.0316 µM, first compound 0.0316 µM
[2] = second compound 0.0316 µM, first compound 0.1 µM
[3] = second compound 0.0316 µM, first compound 0.316 µM
[4] = second compound 0.0316 µM, first compound 1 µM
[5] = second compound 0.0316 µM, first compound 3.16 µM
[6] = second compound 0.0316 µM, first compound 10 µM
[7] = second compound 0.1 µM, first compound 0.0316 µM
[8] = second compound 0.1 µM, first compound 0.1 µM
[9] = second compound 0.1 µM, first compound 0.316 µM
[10] = second compound 0.1 µM, first compound 1 µM
[11] = second compound 0.1 µM, first compound 3.16 µM
[12] = second compound 0.1 µM, first compound 10 µM
[13] = second compound 0.316 µM, first compound 0.0316 µM
[14] = second compound 0.316 µM, first compound 0.1 µM
[15] = second compound 0.316 µM, first compound 0.316 µM
[16] = second compound 0.316 µM, first compound 1 µM
[17] = second compound 0.316 µM, first compound 3.16 µM
[18] = second compound 0.316 µM, first compound 10 µM
[19] = second compound 1 µM, first compound 0.0316 µM
[20] = second compound 1 µM, first compound 0.1 µM
[21] = second compound 1 µM, first compound 0.316 µM
[22] = second compound 1 µM, first compound 1 µM
[23] = second compound 1 µM, first compound 3.16 µM
[24] = second compound 1 µM, first compound 10 µM
[25] = second compound 3.16 µM, first compound 0.0316 µM
[26] = second compound 3.16 µM, first compound 0.1 µM
[27] = second compound 3.16 µM, first compound 0.316 µM
[28] = second compound 3.16 µM, first compound 1 µM
[29] = second compound 3.16 µM, first compound 3.16 µM
[30] = second compound 3.16 µM, first compound 10 µM
[31] = second compound 10 µM, first compound 0.0316 µM
[32] = second compound 10 µM, first compound 0.1 µM
[33] = second compound 10 µM, first compound 0.316 µM
[34] = second compound 10 µM, first compound 1 µM
[35] = second compound 10 µM, first compound 3.16 µM
[36] = second compound 10 µM, first compound 10 µM
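Also: spheroids exposed to compounds for 7 days before readout.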
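For viability, T/C in this document: percent of vehicle DMSO control viability with 100% = untreated-like growth.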

Work on C=CCn1c(=O)c2cnc(Nc3ccc(N4CCN(C)CC4)cc3)nc2n1-c1cccc(C(C)(C)O)n1 + Cc1[nH]c2ccc(F)cc2c1-c1nc2c3cccnc3c3ncccc3c2[nH]1 yielded an IC50 (second compound 0.0316 µM) of 4250 nM, an IC50 (second compound 0.1 µM) of 3540 nM and an IC50 (second compound 0.316 µM) of 3230 nM. For the same compound, the IC50 (second compound 1 µM) was 1950 nM, the IC50 (second compound 3.16 µM) was 44.7 nM and the IC50 (second compound 10 µM) was < 31.6 nM. For the same compound, the viability, T/C [1] was 101%, the viability, T/C [2] was 61.7% and the viability, T/C [3] was 95%. The viability, T/C [4] was 73.2%, the viability, T/C [5] was 63.7% and the viability, T/C [6] was 15.3%. It also gave a viability, T/C [7] of 80.2%, a viability, T/C [8] of 65.2% and a viability, T/C [9] of 79.8%. For the same compound, the viability, T/C [10] was 62.2%, the viability, T/C [11] was 56.5% and the viability, T/C [12] was 12.7%. It also gave a viability, T/C [13] of 91.6%, a viability, T/C [14] of 70.5% and a viability, T/C [15] of 77.7%. It also gave a viability, T/C [16] of 70%, a viability, T/C [17] of 51.4% and a viability, T/C [18] of 12.8%. The viability, T/C [19] was 84.5%, the viability, T/C [20] was 71% and the viability, T/C [21] was 72.6%. For the same compound, the viability, T/C [22] was 59.5%, the viability, T/C [23] was 44.3% and the viability, T/C [24] was 11%. The viability, T/C [25] was 50.3%, the viability, T/C [26] was 49.1% and the viability, T/C [27] was 24%. It also gave a viability, T/C [28] of 16.9%, a viability, T/C [29] of 12.7% and a viability, T/C [30] of 2.18%. The viability, T/C [31] was 20.7%, the viability, T/C [32] was 41.4% and the viability, T/C [33] was 16.9%. The viability, T/C [34] was 11.4%, the viability, T/C [35] was 7.59% and the viability, T/C [36] was 1.56%.
For C#Cc1c(F)ccc2cc(O)cc(-c3ncc4c(N5CC6CCC(C5)N6)nc(OCC56CCCN5CC(F)C6)nc4c3F)c12 (stereo not drawn) + Cc1[nH]c2ccc(F)cc2c1-c1nc2c3cccnc3c3ncccc3c2[nH]1, the IC50 (second compound 0.0316 µM) was 1890 nM, the IC50 (second compound 0.1 µM) was 1280 nM and the IC50 (second compound 0.316 µM) was 1370 nM. For the same compound, the IC50 (second compound 1 µM) was 825 nM, the IC50 (second compound 3.16 µM) was 35.9 nM and the IC50 (second compound 10 µM) was < 31.6 nM. The viability, T/C [1] was 108%, the viability, T/C [2] was 95.5% and the viability, T/C [3] was 82.2%. The viability, T/C [4] was 83.2%, the viability, T/C [5] was 20.6% and the viability, T/C [6] was 26%. The viability, T/C [7] was 104%, the viability, T/C [8] was 114% and the viability, T/C [9] was 98.3%. The viability, T/C [10] was 59.6%, the viability, T/C [11] was 13.2% and the viability, T/C [12] was 22.9%. It also gave a viability, T/C [13] of 96.9%, a viability, T/C [14] of 102% and a viability, T/C [15] of 90.4%. The viability, T/C [16] was 64.4%, the viability, T/C [17] was 9.13% and the viability, T/C [18] was 13.3%. For the same compound, the viability, T/C [19] was 105%, the viability, T/C [20] was 110% and the viability, T/C [21] was 102%. The viability, T/C [22] was 39.5%, the viability, T/C [23] was 6.79% and the viability, T/C [24] was 6.81%. For the same compound, the viability, T/C [25] was 52.7%, the viability, T/C [26] was 28.4% and the viability, T/C [27] was 15.7%. It also gave a viability, T/C [28] of 3.57%, a viability, T/C [29] of 1.91% and a viability, T/C [30] of 1.84%. It also gave a viability, T/C [31] of 34.4%, a viability, T/C [32] of 15.4% and a viability, T/C [33] of 14.7%. The viability, T/C [34] was 2.45%, the viability, T/C [35] was 1.52% and the viability, T/C [36] was 1.43%.
Compound O=C(NO)c1cnc(N2CCN(S(=O)(=O)c3ccc4ccccc4c3)CC2)nc1 + CN(C)c1ccc(Nc2c3ccc(NC(=O)CCN4CCCC4)cc3nc3cc(NC(=O)CCN4CCCC4)ccc23)cc1 has an IC50 (second compound 0.0316 µM) of 518 nM, an IC50 (second compound 0.1 µM) of 512 nM and an IC50 (second compound 0.316 µM) of 536 nM. For the same compound, the IC50 (second compound 1 µM) was 508 nM, the IC50 (second compound 3.16 µM) was 578 nM and the IC50 (second compound 10 µM) was 464 nM. The viability, T/C [1] was 107%, the viability, T/C [2] was 128% and the viability, T/C [3] was 86.8%. The viability, T/C [4] was 2.18%, the viability, T/C [5] was 0.16% and the viability, T/C [6] was 0.17%. The viability, T/C [7] was 110%, the viability, T/C [8] was 93.4% and the viability, T/C [9] was 83.6%. It also gave a viability, T/C [10] of 3.12%, a viability, T/C [11] of 0.11% and a viability, T/C [12] of 0.12%. It also gave a viability, T/C [13] of 111%, a viability, T/C [14] of 101% and a viability, T/C [15] of 90.6%. The viability, T/C [16] was 2.03%, the viability, T/C [17] was 0.1% and the viability, T/C [18] was 0.11%. The viability, T/C [19] was 103%, the viability, T/C [20] was 120% and the viability, T/C [21] was 84%. The viability, T/C [22] was 2.22%, the viability, T/C [23] was 0.08% and the viability, T/C [24] was 0.11%. The viability, T/C [25] was 113%, the viability, T/C [26] was 92.1% and the viability, T/C [27] was 106%. For the same compound, the viability, T/C [28] was 1.28%, the viability, T/C [29] was 0.14% and the viability, T/C [30] was 0.13%. It also gave a viability, T/C [31] of 93%, a viability, T/C [32] of 87.8% and a viability, T/C [33] of 73.1%. It also gave a viability, T/C [34] of 3.72%, a viability, T/C [35] of 0.18% and a viability, T/C [36] of 0.17%.
COc1cccc2c1C(=O)c1c(O)c3c(c(O)c1C2=O)CC(O)(C(=O)CO)CC3OC1CC(N)C(O)C(C)O1 (stereo not drawn) + Cc1[nH]c2ccc(F)cc2c1-c1nc2c3cccnc3c3ncccc3c2[nH]1 was tested, and the IC50 (second compound 0.0316 µM) was 1350 nM, the IC50 (second compound 0.1 µM) was 1320 nM and the IC50 (second compound 0.316 µM) was 1080 nM. The IC50 (second compound 1 µM) was 991 nM, the IC50 (second compound 3.16 µM) was 222 nM and the IC50 (second compound 10 µM) was < 31.6 nM. It also gave a viability, T/C [1] of 108%, a viability, T/C [2] of 99.2% and a viability, T/C [3] of 86.4%. The viability, T/C [4] was 64.1%, the viability, T/C [5] was 18.5% and the viability, T/C [6] was 1.16%. The viability, T/C [7] was 94.4%, the viability, T/C [8] was 114% and the viability, T/C [9] was 81.3%. It also gave a viability, T/C [10] of 64%, a viability, T/C [11] of 16.8% and a viability, T/C [12] of 1.17%. It also gave a viability, T/C [13] of 98.1%, a viability, T/C [14] of 129% and a viability, T/C [15] of 83.4%. The viability, T/C [16] was 54%, the viability, T/C [17] was 16.8% and the viability, T/C [18] was 0.84%. It also gave a viability, T/C [19] of 106%, a viability, T/C [20] of 116% and a viability, T/C [21] of 85.3%. The viability, T/C [22] was 47.3%, the viability, T/C [23] was 22% and the viability, T/C [24] was 0.99%. It also gave a viability, T/C [25] of 78%, a viability, T/C [26] of 74.3% and a viability, T/C [27] of 32%. It also gave a viability, T/C [28] of 29.8%, a viability, T/C [29] of 9.5% and a viability, T/C [30] of 0.94%. The viability, T/C [31] was 36.5%, the viability, T/C [32] was 47.2% and the viability, T/C [33] was 23.8%. It also gave a viability, T/C [34] of 18.4%, a viability, T/C [35] of 7.13% and a viability, T/C [36] of 0.99%.
